Reference: ChEMBL document CHEMBL1157648, “Structural-based design and synthesis of novel 9-deazaguanine derivatives having a phosphate mimic as multi-substrate analogue inhibitors for mammalian PNPs” (Bioorg Med Chem, 2010)
Values joined by “and” are separate entries in the source; they are usually repeats but may differ in a detail not shown here. Equal entries are not always repeated. Active and inactive are the calls of the source. No cut-off for these calls is given here.

Experiments:
[1] = Dissociation constant, pKa at 2 mg by spectrophotometry
[2] = molecular target: T1, Purine nucleoside phosphorylase (Bos taurus) (UniProt P55859); conditions: Spleen
T1 sequence (whole entry): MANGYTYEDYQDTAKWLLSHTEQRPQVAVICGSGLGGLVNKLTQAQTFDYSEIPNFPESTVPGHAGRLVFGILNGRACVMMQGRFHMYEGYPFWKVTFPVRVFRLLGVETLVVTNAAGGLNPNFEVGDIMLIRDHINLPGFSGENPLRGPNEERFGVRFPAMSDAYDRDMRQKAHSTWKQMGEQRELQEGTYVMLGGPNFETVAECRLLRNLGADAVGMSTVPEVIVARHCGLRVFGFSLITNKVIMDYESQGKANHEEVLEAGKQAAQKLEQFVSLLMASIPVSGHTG

[3] = molecular target: T2, Purine nucleoside phosphorylase (Homo sapiens) (UniProt P00491); conditions: 4.99 to 18.71 uM
T2 sequence (whole entry): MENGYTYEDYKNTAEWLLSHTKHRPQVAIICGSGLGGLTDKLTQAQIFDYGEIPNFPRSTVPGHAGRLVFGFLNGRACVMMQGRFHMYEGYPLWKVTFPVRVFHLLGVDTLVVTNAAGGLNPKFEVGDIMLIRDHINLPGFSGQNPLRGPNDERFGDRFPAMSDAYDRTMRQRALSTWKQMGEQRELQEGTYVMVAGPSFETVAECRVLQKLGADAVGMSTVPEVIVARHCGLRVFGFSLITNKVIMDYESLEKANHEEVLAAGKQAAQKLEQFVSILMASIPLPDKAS

[4] = molecular target: T3, Purine nucleoside phosphorylase (Bos taurus, UniProt P55859); experiment: Inhibition of calf spleen PNP assessed as inhibition of 7-methylguanosine phosphorolysis after 50 mins by spectrophotometry in presence of 1 mM inorganic phosphate; conditions: read-out: Ki(app)
T3 sequence (P55859 whole entry): T1 sequence (whole entry)

[5] = molecular target: T4, Purine nucleoside phosphorylase (Homo sapiens, UniProt P00491); experiment: Inhibition of human erythrocyte PNP assessed as inhibition of 7-methylguanosine phosphorolysis after 50 mins by spectrophotometry in presence of 1 mM inorganic phosphate; conditions: read-out: Ki(app)
T4 sequence (P00491 whole entry): T2 sequence (whole entry)

[6] = molecular target: T3, Purine nucleoside phosphorylase
[7] = molecular target: T1, Purine nucleoside phosphorylase (Bos taurus); conditions: Spleen; remark: listed apart in the source
[8] = molecular target: T4, Purine nucleoside phosphorylase; experiment: Inhibition of human erythrocyte PNP assessed as inhibition of 25 uM 7-methylguanosine phosphorolysis by spectrophotometry in presence of 1 mM inorganic phosphate

Cn1c(N)nc2ccn(C)c2c1=O
pKa [1]: 10.6

Nc1nc(O)c2ncn(CCCCC(F)(F)P(=O)(O)O)c2n1
Kieq [2]: 0.72 nM

Nc1nc2c(CCCCC(F)(F)P(=O)(O)O)c[nH]c2c(=O)[nH]1
inhibition [3]: Active | Kieq [2]: 0.085 nM

Nc1nc2c(CCCCCCCC(F)(F)P(=O)(O)O)c[nH]c2c(=O)[nH]1
Ki [4]: 6.1 nM and 0.94 nM | Ki [5]: 5.6 nM

O=c1[nH]cnc2c([C@@H]3N[C@H](CO)[C@@H](O)[C@H]3O)c[nH]c12 [FORODESINE]
Ki [6]: 41 nM | Kieq [7]: 0.023 nM

CCOP(=O)(OCC)C(F)(F)CCCc1c[nH]c2c(=O)[nH]c(N)nc12
IC50 [8]: 170 nM

Cn1c(N)nc2cc[nH]c2c1=O
pKa [1]: 5.1
